Source: ChEMBL document CHEMBL3039007, “Structure-based identification of OATP1B1/3 inhibitors” (Mol Pharmacol, 2013)

target: T1, Solute carrier organic anion transporter family member 1B3 (Homo sapiens, UniProt Q9NPD5); conditions: chinese hamster, cho, 10 µM
T1 sequence (Q9NPD5 whole entry): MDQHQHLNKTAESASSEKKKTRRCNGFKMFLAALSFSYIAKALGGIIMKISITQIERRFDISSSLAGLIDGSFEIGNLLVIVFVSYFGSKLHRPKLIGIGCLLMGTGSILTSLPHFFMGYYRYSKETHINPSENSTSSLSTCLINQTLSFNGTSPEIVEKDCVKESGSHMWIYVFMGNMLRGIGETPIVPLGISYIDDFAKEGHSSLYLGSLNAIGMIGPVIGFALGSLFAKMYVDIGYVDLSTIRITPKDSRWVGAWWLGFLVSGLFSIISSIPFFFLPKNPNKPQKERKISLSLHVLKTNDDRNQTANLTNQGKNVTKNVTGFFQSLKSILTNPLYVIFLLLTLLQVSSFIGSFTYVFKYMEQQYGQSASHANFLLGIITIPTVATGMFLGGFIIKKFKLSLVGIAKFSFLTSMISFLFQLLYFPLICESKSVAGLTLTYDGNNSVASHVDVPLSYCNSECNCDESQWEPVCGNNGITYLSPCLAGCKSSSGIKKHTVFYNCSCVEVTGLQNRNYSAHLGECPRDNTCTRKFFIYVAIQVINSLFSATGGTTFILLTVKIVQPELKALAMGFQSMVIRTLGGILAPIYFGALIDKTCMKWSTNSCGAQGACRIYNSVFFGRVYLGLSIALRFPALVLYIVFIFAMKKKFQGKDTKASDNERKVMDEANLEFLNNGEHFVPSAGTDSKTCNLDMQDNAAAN

| Structure (SMILES) | residual activity |
| --- | --- |
| COc1ccc(C(=O)O[C@@H]2CC[C@@]3(C)[C@@H]4CC[C@H]5[C@]6(O)C[C@H](O)[C@@]7(O)[C@@H](CN8C[C@@H](C)CC[C@H]8[C@@]7(C)O)[C@]6(O)C[C@@]53O[C@@]42O)cc1OC.O=S(=O)(O)O | 91.85% |
| CC(=O)Oc1ccc2c(c1)CC[C@@H]1[C@@H]2CC[C@]2(C)[C@@H](OC(C)=O)CC[C@@H]12 | 113.7% |
| O=P(O)(O)O.c1ccc(CN(CC2=NCCN2)c2ccccc2)cc1 [ANTAZOLINE PHOSPHATE] | 97.11% |
| CC(=O)Oc1ccccc1C(=O)O [ASPIRIN] | 96.37% |
| COc1ccc(-c2oc3cc(O[C@@H]4O[C@H](CO)[C@@H](O)[C@H](O)[C@H]4O)c(OC)c(O)c3c(=O)c2OC)cc1O [CENTAUREIN] | 91.7% |
| CC1=C(C(=O)O)N2C(=O)[C@@H](NC(=O)[C@H](N)C3=CCC=CC3)[C@H]2SC1 [CEPHRADINE] | 100.4% |
| Clc1ccccc1C(c1ccccc1)(c1ccccc1)n1ccnc1 [CLOTRIMAZOLE] | 105.9% |
| CC(=O)O[C@]1(C(C)=O)CC[C@H]2[C@@H]3C=C(Cl)C4=CC(=O)[C@@H]5C[C@@H]5[C@]4(C)[C@H]3CC[C@@]21C [CYPROTERONE ACETATE] | 103.2% |
| CC(=O)OCC(=O)[C@H]1CC[C@H]2[C@@H]3CCC4=CC(=O)CC[C@]4(C)[C@H]3CC[C@]12C [DESOXYCORTICOSTERONE ACETATE] | 88.97% |
| C[C@@H]1C[C@H]2[C@@H]3CCC4=CC(=O)C=C[C@]4(C)[C@@]3(F)[C@@H](O)C[C@]2(C)[C@@]1(O)C(=O)CO [DEXAMETHASONE] | 103.9% |
| CC/C(=C(/CC)c1ccc(O)cc1)c1ccc(O)cc1 [DIETHYLSTILBESTROL] | 45.56% |
| CC1(C)OC(=O)NC1=O [DIMETHADIONE] | 109.1% |
| OCCN(CCO)c1nc(N2CCCCC2)c2nc(N(CCO)CCO)nc(N3CCCCC3)c2n1 [DIPYRIDAMOLE] | 89.24% |
| O=c1[nH]c2ccccc2n1CCCN1CCC(n2c(=O)[nH]c3cc(Cl)ccc32)CC1 [DOMPERIDONE] | 111% |
| CN(C)CCC=C1c2ccccc2COc2ccccc21.Cl [DOXEPIN HYDROCHLORIDE] | 101.8% |
| C[C@H]1c2cccc(O)c2C(=O)C2=C(O)[C@]3(O)C(=O)C(C(N)=O)=C(O)[C@@H](N(C)C)[C@@H]3[C@@H](O)[C@@H]21.Cl [DOXYCYCLINE HYDROCHLORIDE] | 106% |
| CN(C)CCOC(C)(c1ccccc1)c1ccccn1.O=C(O)CCC(=O)O (configuration not stated) [DOXYLAMINE SUCCINATE] | 108.8% |
| O=C(CCCN1CC=C(n2c(=O)[nH]c3ccccc32)CC1)c1ccc(F)cc1 [DROPERIDOL] | 147.6% |
| CN[C@@H](C)[C@H](O)c1ccccc1.Cl [EPHEDRINE HYDROCHLORIDE] | 105.1% |
| C=C1CC[C@H](O)C/C1=C/C=C1\CCC[C@]2(C)[C@@H]([C@H](C)/C=C/[C@H](C)C(C)C)CC[C@@H]12 [ERGOCALCIFEROL] | 28.81% |
| CC(=O)Oc1ccc2c(c1)CC[C@@H]1[C@@H]2CC[C@]2(C)[C@@H](O)CC[C@@H]12 [ESTRADIOL ACETATE] | 101% |
| CCC(=O)O[C@H]1CC[C@H]2[C@@H]3CCc4cc(O)ccc4[C@H]3CC[C@]12C [ESTRADIOL PROPIONATE] | 111.9% |
| CCOc1ccc(Cc2nccc3cc(OCC)c(OCC)cc23)cc1OCC.Cl [ETHAVERINE HYDROCHLORIDE] | 156.2% |
| COc1cc(O)c2c(=O)cc(C)oc2c1CC=C(C)C [HETEROPEUCENIN, METHYL ETHER] | 110.3% |
| COc1ccc2c(c1)O[C@H]1c3ccc(OC)cc3OC[C@@H]21 [HOMOPTEROCARPIN] | 109.3% |
| CN1C[C@H](CNC(=O)OCc2ccccc2)C[C@@H]2c3cccc4c3c(cn4C)C[C@H]21 [METERGOLINE] | 93.79% |
| CCOC(=O)C1=C(C)NC(C)=C(C(=O)OC)C1c1cccc([N+](=O)[O-])c1 (configuration not stated) [NITRENDIPINE] | 77.72% |
